Results: PubChem BioAssay (NCI)
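GI50: concentration for 50% inhibition of growth. Definition used: TGI = concentration required for complete inhibition of growth.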

Legend:
Assay in all cases: growth of human tumour cells (NCI), 384-well format
OVCAR-8 ovarian = tested on: OVCAR-8 ovarian
SK-MEL-5 melanoma = tested on: SK-MEL-5 melanoma
HCT-116 colon = tested on: HCT-116 colon
UACC-257 melanoma = tested on: UACC-257 melanoma
TK-10 renal = tested on: TK-10 renal
MOLT-4 leukemia = tested on: MOLT-4 leukemia
NCI-H522 lung = tested on: NCI-H522 lung
SNB-19 CNS = tested on: SNB-19 CNS
DU-145 prostate = tested on: DU-145 prostate
BT-549 breast = tested on: BT-549 breast
MDA-MB-231 breast = tested on: MDA-MB-231 breast
M14 melanoma = tested on: M14 melanoma
A498 renal = tested on: A498 renal
NCI-H460 NSCLC = tested on: NCI-H460 NSCLC
SNB-75 CNS = tested on: SNB-75 CNS
MCF7 breast = tested on: MCF7 breast
OVCAR-4 ovarian = tested on: OVCAR-4 ovarian
SF-295 CNS = tested on: SF-295 CNS
SR leukemia = tested on: SR leukemia
SK-OV-3 ovarian = tested on: SK-OV-3 ovarian
UO-31 renal = tested on: UO-31 renal
IGROV1 ovarian = tested on: IGROV1 ovarian
KM12 colon = tested on: KM12 colon
NCI/ADR-RES ovarian = tested on: NCI/ADR-RES ovarian
EKVX NSCLC = tested on: EKVX NSCLC
LOX IMVI melanoma = tested on: LOX IMVI melanoma
HCT-15 colon = tested on: HCT-15 colon
SW-620 colon = tested on: SW-620 colon
RXF 393 renal = tested on: RXF 393 renal
COLO 205 colon = tested on: COLO 205 colon
ACHN renal = tested on: ACHN renal
NCI-H322M lung = tested on: NCI-H322M lung
PC-3 prostate = tested on: PC-3 prostate
HOP-62 NSCLC = tested on: HOP-62 NSCLC
HT29 colon = tested on: HT29 colon
MALME-3M melanoma = tested on: MALME-3M melanoma
SF-268 CNS = tested on: SF-268 CNS
SK-MEL-28 melanoma = tested on: SK-MEL-28 melanoma
MDA-MB-468 breast = tested on: MDA-MB-468 breast
CCRF-CEM leukemia = tested on: CCRF-CEM leukemia
SK-MEL-2 melanoma = tested on: SK-MEL-2 melanoma
OVCAR-3 ovarian = tested on: OVCAR-3 ovarian
MDA-MB-435 melanoma = tested on: MDA-MB-435 melanoma
HL-60(TB) leukemia = tested on: HL-60(TB) leukemia
T-47D breast = tested on: T-47D breast
SN12C renal = tested on: SN12C renal
HOP-92 NSCLC = tested on: HOP-92 NSCLC

**Q.** `Nc1nc2cc(-c3ccc4ncc(C(=O)N5CCOCC5)n4c3)ccc2o1` was tested. Which GI50 (OVCAR-8 ovarian) did it give?
**A.** > 78.2 µM

**Q.** And the TGI (OVCAR-8 ovarian)?
**A.** > 100 µM

**Q.** And the GI50 (SK-MEL-5 melanoma)?
**A.** 5.97 µM

**Q.** What about the TGI (SK-MEL-5 melanoma) of the same compound?
**A.** > 59.6 µM

**Q.** What about the GI50 (HCT-116 colon) of the same compound?
**A.** 5.23 µM

**Q.** And the TGI (HCT-116 colon)?
**A.** > 100 µM

**Q.** What about the GI50 (UACC-257 melanoma) of the same compound?
**A.** > 100 µM

**Q.** What about the TGI (UACC-257 melanoma) of the same compound?
**A.** > 100 µM

**Q.** And the GI50 (TK-10 renal)?
**A.** 5.17 µM

**Q.** And the TGI (TK-10 renal)?
**A.** 53.7 µM

**Q.** And the GI50 (MOLT-4 leukemia)?
**A.** 3.45 µM

**Q.** What about the TGI (MOLT-4 leukemia) of the same compound?
**A.** 19.9 µM

**Q.** What about the GI50 (NCI-H522 lung) of the same compound?
**A.** 4.05 µM

**Q.** What about the TGI (NCI-H522 lung) of the same compound?
**A.** > 74.5 µM

**Q.** What about the GI50 (SNB-19 CNS) of the same compound?
**A.** > 73.8 µM

**Q.** What about the TGI (SNB-19 CNS) of the same compound?
**A.** > 100 µM

**Q.** And the GI50 (DU-145 prostate)?
**A.** 21.3 µM

**Q.** What about the TGI (DU-145 prostate) of the same compound?
**A.** > 100 µM

**Q.** And the GI50 (BT-549 breast)?
**A.** 23.7 µM

**Q.** And the TGI (BT-549 breast)?
**A.** > 100 µM

**Q.** What about the GI50 (MDA-MB-231 breast) of the same compound?
**A.** 9.02 µM

**Q.** What about the TGI (MDA-MB-231 breast) of the same compound?
**A.** > 100 µM

**Q.** What about the GI50 (M14 melanoma) of the same compound?
**A.** 11.6 µM

**Q.** And the TGI (M14 melanoma)?
**A.** > 100 µM

**Q.** And the GI50 (A498 renal)?
**A.** 5.93 µM

**Q.** What about the TGI (A498 renal) of the same compound?
**A.** > 100 µM

**Q.** And the GI50 (NCI-H460 NSCLC)?
**A.** 2.77 µM

**Q.** And the TGI (NCI-H460 NSCLC)?
**A.** > 100 µM

**Q.** And the GI50 (SNB-75 CNS)?
**A.** 10.2 µM

**Q.** And the TGI (SNB-75 CNS)?
**A.** > 75 µM

**Q.** What about the GI50 (MCF7 breast) of the same compound?
**A.** 1.45 µM

**Q.** What about the TGI (MCF7 breast) of the same compound?
**A.** > 100 µM

**Q.** And the GI50 (OVCAR-4 ovarian)?
**A.** > 40.7 µM

**Q.** What about the TGI (OVCAR-4 ovarian) of the same compound?
**A.** > 100 µM

**Q.** And the TGI (SF-295 CNS)?
**A.** > 95.1 µM

**Q.** And the GI50 (SR leukemia)?
**A.** 12.2 µM

**Q.** What about the TGI (SR leukemia) of the same compound?
**A.** > 100 µM

**Q.** What about the GI50 (SK-OV-3 ovarian) of the same compound?
**A.** 2.09 µM

**Q.** What about the TGI (SK-OV-3 ovarian) of the same compound?
**A.** 12.3 µM

**Q.** What about the GI50 (UO-31 renal) of the same compound?
**A.** 8.62 µM

**Q.** What about the TGI (UO-31 renal) of the same compound?
**A.** > 100 µM

**Q.** And the GI50 (IGROV1 ovarian)?
**A.** 1.85 µM

**Q.** And the TGI (IGROV1 ovarian)?
**A.** 5.23 µM

**Q.** What about the GI50 (KM12 colon) of the same compound?
**A.** 28.7 µM

**Q.** And the TGI (KM12 colon)?
**A.** > 100 µM

**Q.** And the GI50 (NCI/ADR-RES ovarian)?
**A.** > 100 µM

**Q.** What about the TGI (NCI/ADR-RES ovarian) of the same compound?
**A.** > 100 µM

**Q.** What about the GI50 (EKVX NSCLC) of the same compound?
**A.** 5.01 µM

**Q.** And the TGI (EKVX NSCLC)?
**A.** > 100 µM

**Q.** What about the GI50 (LOX IMVI melanoma) of the same compound?
**A.** 19.5 µM

**Q.** And the TGI (LOX IMVI melanoma)?
**A.** > 100 µM

**Q.** What about the GI50 (HCT-15 colon) of the same compound?
**A.** 6.21 µM

**Q.** And the TGI (HCT-15 colon)?
**A.** > 100 µM

**Q.** What about the GI50 (SW-620 colon) of the same compound?
**A.** 17.7 µM

**Q.** What about the TGI (SW-620 colon) of the same compound?
**A.** > 91.4 µM

**Q.** And the GI50 (RXF 393 renal)?
**A.** 40.2 µM

**Q.** And the TGI (RXF 393 renal)?
**A.** > 100 µM

**Q.** What about the GI50 (COLO 205 colon) of the same compound?
**A.** 10.2 µM

**Q.** What about the TGI (COLO 205 colon) of the same compound?
**A.** > 100 µM

**Q.** What about the GI50 (ACHN renal) of the same compound?
**A.** 8.58 µM

**Q.** What about the TGI (ACHN renal) of the same compound?
**A.** > 100 µM

**Q.** What about the GI50 (NCI-H322M lung) of the same compound?
**A.** 6.17 µM

**Q.** What about the TGI (NCI-H322M lung) of the same compound?
**A.** > 100 µM

**Q.** And the GI50 (PC-3 prostate)?
**A.** 5.45 µM

**Q.** What about the TGI (PC-3 prostate) of the same compound?
**A.** > 100 µM

**Q.** What about the GI50 (HOP-62 NSCLC) of the same compound?
**A.** > 26.4 µM

**Q.** And the TGI (HOP-62 NSCLC)?
**A.** > 100 µM

**Q.** What about the GI50 (HT29 colon) of the same compound?
**A.** 8.1 µM

**Q.** And the TGI (HT29 colon)?
**A.** > 100 µM

**Q.** And the GI50 (MALME-3M melanoma)?
**A.** 2.78 µM

**Q.** What about the TGI (MALME-3M melanoma) of the same compound?
**A.** > 68.5 µM

**Q.** What about the GI50 (SF-268 CNS) of the same compound?
**A.** 35.1 µM

**Q.** And the TGI (SF-268 CNS)?
**A.** > 100 µM

**Q.** What about the GI50 (SK-MEL-28 melanoma) of the same compound?
**A.** > 57.6 µM

**Q.** What about the TGI (SK-MEL-28 melanoma) of the same compound?
**A.** > 100 µM

**Q.** What about the GI50 (MDA-MB-468 breast) of the same compound?
**A.** 3.93 µM

**Q.** What about the TGI (MDA-MB-468 breast) of the same compound?
**A.** > 92.3 µM

**Q.** And the GI50 (CCRF-CEM leukemia)?
**A.** 7.44 µM

**Q.** What about the TGI (CCRF-CEM leukemia) of the same compound?
**A.** > 100 µM

**Q.** What about the GI50 (SK-MEL-2 melanoma) of the same compound?
**A.** 30 µM

**Q.** And the TGI (SK-MEL-2 melanoma)?
**A.** > 100 µM

**Q.** What about the GI50 (OVCAR-3 ovarian) of the same compound?
**A.** 7.73 µM

**Q.** And the TGI (OVCAR-3 ovarian)?
**A.** > 100 µM

**Q.** And the GI50 (MDA-MB-435 melanoma)?
**A.** 24.2 µM

**Q.** What about the TGI (MDA-MB-435 melanoma) of the same compound?
**A.** > 100 µM

**Q.** What about the GI50 (HL-60(TB) leukemia) of the same compound?
**A.** 5.36 µM

**Q.** What about the TGI (HL-60(TB) leukemia) of the same compound?
**A.** > 78 µM

**Q.** What about the GI50 (T-47D breast) of the same compound?
**A.** 0.574 µM

**Q.** And the TGI (T-47D breast)?
**A.** 3.14 µM

**Q.** And the GI50 (SN12C renal)?
**A.** 7.67 µM

**Q.** And the TGI (SN12C renal)?
**A.** > 100 µM

**Q.** And the GI50 (HOP-92 NSCLC)?
**A.** 2.2 µM

**Q.** What about the TGI (HOP-92 NSCLC) of the same compound?
**A.** 18.5 µM
